In patent publication US7479489B2, “Heterocyclic antiviral compounds” (Roche Palo Alto LLC, priority 2004, dated 2009):

| Compound | melting point |
| --- | --- |
| NC(=O)CCOc1ccc2c(c1)S(=O)(=O)C=C(c1c(O)c3cc(F)ccc3n(CCC3CC3)c1=O)N2 | > 250 °C |
| CC(C)CCn1c(=O)c(C2=CS(=O)(=O)c3ccc(Cl)cc3N2)c(O)c2ccccc21 | 90 to 110 °C |
| CC[C@H](C)[C@H]1C(O)=C(C2=CS(=O)(=O)c3ccccc3N2)C(=O)N1CCC(C)C | 72 to 80 °C |
| CN(c1ccc2c(c1)S(=O)(=O)C=C(c1c(O)c3cc(F)ccc3n(CCC3CC3)c1=O)N2)S(C)(=O)=O | 208 to 212 °C |
| O=c1c(C2=CS(=O)(=O)c3ccccc3N2)c(O)c2ccccc2n1Cc1ccccc1F | > 200 °C |
| CC(C)CCn1c(=O)c(C2=CS(=O)(=O)c3cc(NS(C)(=O)=O)ccc3N2)c(O)c2cc(F)ccc21 | 205 to 219 °C |
| O=c1c(C2=CS(=O)(=O)c3ccccc3N2)c(O)c2cc(Cl)ccc2n1CCC1CC1 | 227 to 229 °C |
| Nc1ccc2c(c1)S(=O)(=O)C=C(c1c(O)c3ccccc3n(CCC3CC3)c1=O)N2 | > 250 °C |
| CC(C)CCn1c(=O)c(C2=CS(=O)(=O)c3ccc(C#N)cc3N2)c(O)c2ccccc21 | > 250 °C |
| CS(=O)(=O)Nc1ccc2c(c1)S(=O)(=O)C=C(c1c(O)c3cc(F)ccc3n(Cc3ccc(F)c(C(F)(F)F)c3)c1=O)N2 | 185.8 to 187 °C |
| CC(C)(C)[C@H]1C(O)=C(C2=CS(=O)(=O)c3cc(NS(N)(=O)=O)ccc3N2)C(=O)N1Cc1ccc(F)cc1 | 150 to 156 °C |
| CS(=O)(=O)Nc1ccc2c(c1)S(=O)(=O)C=C(c1c(O)c3cc(F)ccc3n(Cc3cccnc3)c1=O)N2 | 174 to 186 °C |
| CN1C(c2nc(Cc3ccc(F)cc3)c3ccccc3c2O)=CS(=O)(=O)c2cc(Cl)ccc21 | > 275 °C |
| CC(C)(C)[C@H]1C(O)=C(C2=CS(=O)(=O)c3cc(NS(C)(=O)=O)ccc3N2)C(=O)N1CCC1CC1 | 140 to 145 °C |
| CS(=O)(=O)Nc1ccc2c(c1)S(=O)(=O)C=C(c1c(O)c3cc(F)ccc3n(Cc3ccncc3)c1=O)N2.O=C(O)C(F)(F)F | 167 to 169 °C |
| O=c1c(C2=CS(=O)(=O)c3cc(NS(=O)(=O)c4ccccc4)ccc3N2)c(O)c2cc(F)ccc2n1CCC1CC1 | > 200 °C |
| CC(C)(C)[C@H]1C(O)=C(C2=CS(=O)(=O)c3cc(N)ccc3N2)C(=O)N1CCC1CC1 | 105 to 110 °C |
| COc1cc(CN2C(=O)C(C3=CS(=O)(=O)c4cc(NS(C)(=O)=O)ccc4N3)=C(O)[C@@H]2C(C)(C)C)ccc1F | 175 to 180 °C |
| CC(C)CCN1C(=O)C(C2=CS(=O)(=O)c3ccccc3N2)=C(O)[C@@H]1C(C)(C)C | 85 to 87 °C |

| Compound | melting point |
| --- | --- |
| CC(C)CCn1c(=O)c(C2=CS(=O)(=O)c3ccccc3N2)c(O)c2cc(F)cnc21 | 90 to 112 °C |
| COc1ccc2c(c1)c(O)c(C1=CS(=O)(=O)c3ccccc3N1)c(=O)n2CCC1CC1 | 220 to 221 °C |
| O=c1c(C2=CS(=O)(=O)c3cc(NS(=O)(=O)C4CC4)ccc3N2)c(O)c2cc(F)ccc2n1CCC1CC1 | 145 to 155 °C |
| O=C1C(C2=CS(=O)(=O)c3ccccc3N2)=C(O)[C@H](C2CCCCC2)N1Cc1ccc(F)cc1 | 180 °C (dec.) |
| CNC(=O)Nc1ccc2c(c1)S(=O)(=O)C=C(c1c(O)c3cc(F)ccc3n(CCC3CC3)c1=O)N2 | > 220 °C |
| CCCS(=O)(=O)Nc1ccc2c(c1)S(=O)(=O)C=C(c1c(O)c3cc(F)ccc3n(CCC3CC3)c1=O)N2 | 145 to 150 °C |
| CC(C)CCN1C(=O)C(C2=CS(=O)(=O)c3ccccc3N2)=C(O)[C@@H]1C1CCCCC1 | 98 to 100 °C |
| CC(C)(C)[C@H]1C(O)=C(C2=CS(=O)(=O)c3cc([N+](=O)[O-])ccc3N2)C(=O)N1Cc1ccc(F)cc1 | 138 to 147 °C |
| CS(=O)(=O)Nc1ccc2c(c1)S(=O)(=O)C=C(c1c(O)c3cc(F)ccc3n(CC3CCCCC3)c1=O)N2 | 184 to 203 °C |
| CCCS(=O)(=O)Nc1ccc2c(c1)S(=O)(=O)C=C(c1c(O)c3cc(F)ccc3n(CCC3CC3)c1=O)N2.[Na] | > 250 °C |
| CC(C)(C)[C@H]1C(O)=C(C2=CS(=O)(=O)c3cc(N)ccc3N2)C(=O)N1Cc1ccc(F)cc1 | 146 to 155 °C |
| Cc1noc(C)c1S(=O)(=O)Nc1ccc2c(c1)S(=O)(=O)C=C(c1c(O)c3cc(F)ccc3n(CCC3CC3)c1=O)N2 | 150 to 157 °C |
| O=C1C(C2=CS(=O)(=O)c3ccccc3N2)=C(O)[C@H](C2CCCCC2)N1Cc1ccc(F)cc1.[Na] | > 250 °C |
| CC(C)C[C@H]1C(O)=C(C2=CS(=O)(=O)c3ccccc3N2)C(=O)N1Cc1ccc(F)cc1 | 160 °C (dec.) |
| CS(=O)(=O)Nc1ccc2c(c1)S(=O)(=O)C=C(c1c(O)c3cc(F)ccc3n(CCC3CC3)c1=O)N2.[Na] | > 250 °C |
| CN1C(c2nc(Cc3ccc(F)cc3)c3ccc(F)cc3c2O)=CS(=O)(=O)c2cc(Cl)ccc21 | 254 to 256 °C |
| CC[C@H](C)[C@H]1C(O)=C(C2=CS(=O)(=O)c3ccccc3N2)C(=O)N1Cc1ccccc1 | 88 to 95 °C |
| CC(C)CCn1c(=O)c(C2=CS(=O)(=O)c3ccccc3N2)c(O)c2cc(Cl)ccc21 | 194 to 197 °C |

Continued, values first:

| melting point | Compound |
| --- | --- |
| > 250 °C | N#Cc1cccc(Cn2c(=O)c(C3=CS(=O)(=O)c4ccccc4N3)c(O)c3cc(F)ccc32)c1.[Na] |
| > 240 °C | CNC(=O)COc1ccc2c(c1)S(=O)(=O)C=C(c1c(O)c3cc(F)ccc3n(Cc3ccc(F)cc3)c1=O)N2 |
| 242 to 244 °C | O=c1c(C2=CS(=O)(=O)c3cc(OCc4ccccc4)ccc3N2)c(O)c2cc(F)ccc2n1Cc1ccc(F)cc1 |
| > 250 °C | COc1ccc2c(c1)S(=O)(=O)C=C(c1c(O)c3cc(F)ccc3n(Cc3ccc(F)cc3)c1=O)N2 |
| 166 to 174 °C | CS(=O)(=O)Nc1ccc2c(c1)S(=O)(=O)C=C(c1c(O)c3cc(F)ccc3n(Cc3ccc(F)c(Cl)c3)c1=O)N2 |
| 200 to 207 °C | COC(=O)COc1ccc2c(c1)S(=O)(=O)C=C(c1c(O)c3cc(F)ccc3n(Cc3ccc(F)cc3)c1=O)N2 |
| 247 to 249 °C | Cc1ccc2c(c1)c(O)c(C1=CS(=O)(=O)c3ccccc3N1)c(=O)n2Cc1ccc(F)cc1 |
| > 250 °C | N#Cc1cccc(Cn2c(=O)c(C3=CS(=O)(=O)c4ccccc4N3)c(O)c3cc(F)ccc32)c1 |
| > 250 °C | CC(=O)Nc1ccc2c(c1)S(=O)(=O)C=C(c1c(O)c3cc(F)ccc3n(Cc3ccc(F)cc3)c1=O)N2 |
| > 250 °C | Nc1ccc2c(c1)S(=O)(=O)C=C(c1c(O)c3cc(F)ccc3n(Cc3ccc(F)cc3)c1=O)N2 |
| > 250 °C | CN(C)C(=O)COc1ccc2c(c1)S(=O)(=O)C=C(c1c(O)c3cc(F)ccc3n(Cc3ccc(F)cc3)c1=O)N2 |
| 214 to 218 °C | CN(c1ccc2c(c1)S(=O)(=O)C=C(c1c(O)c3cc(F)ccc3n(Cc3ccc(F)cc3)c1=O)N2)S(C)(=O)=O |
| 230 to 235 °C | O=c1c(C2=CS(=O)(=O)c3ccccc3N2)c(O)c2cc(F)ccc2n1Cc1ccc(F)c(F)c1.[Na] |
| 148.2 to 149.4 °C | CS(=O)(=O)Nc1ccc2c(c1)S(=O)(=O)C=C(c1c(O)c3cc(F)ccc3n(Cc3ccc(F)c(F)c3)c1=O)N2 |
| > 250 °C | Cc1ccc2c(c1)c(O)c(C1=CS(=O)(=O)c3ccccc3N1)c(=O)n2Cc1ccc(F)cc1.[Na] |
| 230 to 235 °C | O=c1c(C2=CS(=O)(=O)c3ccccc3N2)c(O)c2cc(F)ccc2n1Cc1ccc(F)c(F)c1 |
